Measured values from the NIST ThermoML archive (doi:10.1021/acs.jced.8b00583).

Details: for electrical conductivity / viscosity / mass density: 100 kPa; for electrical conductivity / viscosity / mass density / surface tension liquid-gas: Liquid; for electrical conductivity: Alternating current cell with electrodes; for viscosity: Capillary tube (Ostwald / Ubbelohde) method; for mass density: Vibrating tube method; for surface tension liquid-gas: Maximal bubble pressure; for Glass transition temperature: DSC

CC(=O)O.CCCCN [butylammonium acetate]
Details | Glass transition temperature [°C] | electrical conductivity [S/m] | mass density [kg/m3] | surface tension liquid-gas [mN/m] | viscosity [mPa·s]
– | -98.90 | – | – | – | –
293.15 K | – | 0.051 | 959.02 | 31.5 | 771.6
298.15 K | – | 0.065 | 955.95 | 31.1 | 546.33
303.15 K | – | 0.082 | 952.87 | 30.8 | 397.17
308.15 K | – | 0.103 | 949.87 | 30.5 | 294.59
313.15 K | – | 0.128 | 946.81 | 30.1 | 222.26
318.15 K | – | 0.159 | 943.73 | 29.8 | 163.91
323.15 K | – | 0.197 | 940.83 | 29.5 | 126.15
328.15 K | – | 0.244 | 937.8 | 29.1 | 95.03
333.15 K | – | 0.299 | 934.68 | 28.8 | 77.93

CCCC[NH3+].O=C[O-] [butylammonium formate]
Details | Glass transition temperature [°C] | electrical conductivity [S/m] | mass density [kg/m3] | surface tension liquid-gas [mN/m] | viscosity [mPa·s]
– | -108.50 | – | – | – | –
293.15 K | – | 0.287 | 976.96 | 33.8 | 160.19
298.15 K | – | 0.332 | 973.8 | 33.3 | 120.82
303.15 K | – | 0.384 | 970.66 | 32.9 | 92.68
308.15 K | – | 0.443 | 967.48 | 32.4 | 72.01
313.15 K | – | 0.511 | 964.4 | 32 | 57.07
318.15 K | – | 0.588 | 961.21 | 31.5 | 45.61
323.15 K | – | 0.67 | 958.02 | 31.1 | 37.22
328.15 K | – | 0.761 | 954.95 | 30.6 | 30.62
333.15 K | – | 0.873 | 951.82 | 30.2 | 25.39

CCC(=O)[O-].CCCC[NH3+] [butylammonium propanoate]
Details | Glass transition temperature [°C] | electrical conductivity [S/m] | mass density [kg/m3] | surface tension liquid-gas [mN/m] | viscosity [mPa·s]
– | -89.40 | – | – | – | –
293.15 K | – | 0.049 | 933.95 | 28.1 | 916.56
298.15 K | – | 0.06 | 930.84 | 27.8 | 669.24
303.15 K | – | 0.074 | 927.79 | 27.5 | 494.64
308.15 K | – | 0.091 | 924.86 | 27.1 | 371.06
313.15 K | – | 0.111 | 921.76 | 26.8 | 280.47
318.15 K | – | 0.135 | 918.77 | 26.5 | 211.76
323.15 K | – | 0.164 | 915.69 | 26.2 | 162.68
328.15 K | – | 0.196 | 912.7 | 25.9 | 128.4
333.15 K | – | 0.234 | 909.66 | 25.6 | 99.35

CCCC(=O)[O-].CCCC[NH3+] [n-butylammonium butanoate]
Details | Glass transition temperature [°C] | electrical conductivity [S/m] | mass density [kg/m3] | surface tension liquid-gas [mN/m] | viscosity [mPa·s]
– | -81.80 | – | – | – | –
293.15 K | – | 0.031 | 907.81 | 25.7 | 1112
298.15 K | – | 0.038 | 904.94 | 25.4 | 812.6
303.15 K | – | 0.047 | 902.06 | 25.1 | 599.38
308.15 K | – | 0.059 | 899.18 | 24.8 | 448.37
313.15 K | – | 0.073 | 896.28 | 24.5 | 338.47
318.15 K | – | 0.089 | 893.32 | 24.2 | 262.05
323.15 K | – | 0.109 | 890.57 | 23.9 | 199.16
328.15 K | – | 0.132 | 887.56 | 23.6 | 154.43
333.15 K | – | 0.159 | 884.61 | 23.4 | 126.18
